Experimental data published in patent US20210355066A1 (CymaBay Therapeutics, Inc., priority 2020, published 2021).

Tests used:
[1] = crystalline form
From the text: A weighed aluminum pan configured as the sample pan was placed on the […] side of the cell.

CYP 2C9 = CYP 2C9 (Homo sapiens, UniProt P11712); conditions: tolbutamide hydroxylation assay; relative to (S)-enantiomer; cited from earlier work
Chain of CYP 2C9 (P11712 whole entry, species assumed): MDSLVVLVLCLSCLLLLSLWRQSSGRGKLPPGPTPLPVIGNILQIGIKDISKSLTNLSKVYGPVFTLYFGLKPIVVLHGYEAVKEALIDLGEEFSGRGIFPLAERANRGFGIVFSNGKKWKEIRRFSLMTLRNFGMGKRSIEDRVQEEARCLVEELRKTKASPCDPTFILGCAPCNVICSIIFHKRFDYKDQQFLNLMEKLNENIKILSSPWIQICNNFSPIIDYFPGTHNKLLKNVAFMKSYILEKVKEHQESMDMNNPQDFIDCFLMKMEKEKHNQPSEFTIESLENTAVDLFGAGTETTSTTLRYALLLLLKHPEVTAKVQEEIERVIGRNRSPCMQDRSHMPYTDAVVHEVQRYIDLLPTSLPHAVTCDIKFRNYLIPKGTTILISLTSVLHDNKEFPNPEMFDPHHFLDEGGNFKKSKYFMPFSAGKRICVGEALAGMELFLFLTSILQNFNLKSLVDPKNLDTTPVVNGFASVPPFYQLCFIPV

Molecule	stability to thermal stress [1]	fold less active as an inhibitor of CYP 2C9 than its (S)-enantiomer (CYP 2C9)
2-hydroxy-N,N,N-trimethylethan-1-aminium (2R)-2-(4-chlorophenyl)-2-[3-(trifluoromethyl)phenoxy]acetate [CB-0406 choline salt]	good stability to thermal stress	–
O=C(O)[C@H](Oc1cccc(C(F)(F)F)c1)c1ccc(Cl)cc1 [CB-0406, (2R)-2-(4-chlorophenyl)-2-[3-(trifluoromethyl)phenoxy]acetic acid]	–	approximately 20 fold
